Test results reported in patent publication US10532082B2, “SOCS1-derived peptide for use in chronic complications of diabetes” (Fundació Hospital Universitari Vall d'Hebron-Institut de …, priority 2014, dated 2020).
Where no end group is shown, it is not given here.

Tests used:
[1] = test system: STAT1; test: STAT1 activation in cytokine-stimulated macrophages (Western blot); format: cell-based, murine; settings: pre-incubation 50-150 ug/mL (Mut 150 ug/mL), IFNγ and IL-6 stimulation
Description: (§1) RAW264.7 macrophages and vascular smooth muscle cells (VSMC) cultured in a medium with 10% fetal bovine serum were used. The cells were synchronized (24 hours without serum), pre-incubated for 90 minutes with different peptide concentrations (miS1 or the control thereof, 50-150 μg/mL) and stimulated with cytokines (IFNγ […]). STAT activation was analyzed by means of Western blot for phosphorylated STAT1/STAT3 isoforms. JAK/STAT pathway-dependent chemokine (CCL2) expression was determined by means of ELISA. Cell viability was analyzed by MTT colorimetric assay and macrophage migration was analyzed by chemotaxis assay.

[2] = test system: STAT3; test: STAT3 activation in cytokine-stimulated macrophages (Western blot); format: cell-based, murine; settings: pre-incubation 50-150 ug/mL (Mut 150 ug/mL), IFNγ and IL-6 stimulation
Description: as §1

Mut: non-functional mutated peptide, F substituted with A: SEQ ID NO 3 DTHARTARSHSDYRRI, bound to lysine-palmitate; control of the experiments (not fully specified (N-terminus)) [reference compound]
STAT1 activation (phosphorylation) [1]: did not cause any effect | STAT3 activation (phosphorylation) [2]: did not cause any effect
